Here are results for 26 molecules from BindingDB's records for doi:10.1016/j.bmc.2010.08.049 (University of Wisconsin-Milwaukee, 2010).

Experiment [1] deals with Gamma-aminobutyric acid receptor subunit alpha-6/beta-3/gamma-2 (Homo sapiens, UniProt Q16445+P18507+P28472). The experiment is described as follows: Displacement of [3H]flunitrazepam from human recombinant GABAA alpha-6-beta-3-gamma-2 receptor expressed in HEK cells by liquid scintillation counting. (Loss of bound radioactivity is the signal in a displacement assay; it reports binding, not function.)
Gamma-aminobutyric acid receptor subunit alpha-6/beta-3/gamma-2, sequence (Q16445 whole entry, one chain of several): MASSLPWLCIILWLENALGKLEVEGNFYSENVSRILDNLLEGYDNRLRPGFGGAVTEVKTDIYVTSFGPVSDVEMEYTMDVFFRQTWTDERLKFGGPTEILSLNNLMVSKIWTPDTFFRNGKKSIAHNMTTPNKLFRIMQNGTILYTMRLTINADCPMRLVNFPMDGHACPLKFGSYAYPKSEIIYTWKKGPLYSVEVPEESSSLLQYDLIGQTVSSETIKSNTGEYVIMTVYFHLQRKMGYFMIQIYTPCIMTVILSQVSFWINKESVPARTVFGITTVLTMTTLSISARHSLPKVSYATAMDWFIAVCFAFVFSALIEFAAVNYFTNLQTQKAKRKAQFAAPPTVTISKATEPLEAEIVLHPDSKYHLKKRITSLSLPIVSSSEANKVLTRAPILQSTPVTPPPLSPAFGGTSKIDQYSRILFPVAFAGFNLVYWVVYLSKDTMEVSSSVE

Experiment [2] concerns the target GABA A receptor alpha-4/beta-3/gamma-2 (Homo sapiens, UniProt P48169+P18507+P28472). Briefly: Displacement of [3H]flunitrazepam from human recombinant GABAA alpha-4-beta-3-gamma-2 receptor expressed in HEK cells by liquid scintillation counting.
Experiment [3] has as its target T1, GABA-A receptor; alpha-5/beta-3/gamma-2 (Homo sapiens, UniProt P31644+P18507+P28472).
T1 sequence (P31644 whole entry): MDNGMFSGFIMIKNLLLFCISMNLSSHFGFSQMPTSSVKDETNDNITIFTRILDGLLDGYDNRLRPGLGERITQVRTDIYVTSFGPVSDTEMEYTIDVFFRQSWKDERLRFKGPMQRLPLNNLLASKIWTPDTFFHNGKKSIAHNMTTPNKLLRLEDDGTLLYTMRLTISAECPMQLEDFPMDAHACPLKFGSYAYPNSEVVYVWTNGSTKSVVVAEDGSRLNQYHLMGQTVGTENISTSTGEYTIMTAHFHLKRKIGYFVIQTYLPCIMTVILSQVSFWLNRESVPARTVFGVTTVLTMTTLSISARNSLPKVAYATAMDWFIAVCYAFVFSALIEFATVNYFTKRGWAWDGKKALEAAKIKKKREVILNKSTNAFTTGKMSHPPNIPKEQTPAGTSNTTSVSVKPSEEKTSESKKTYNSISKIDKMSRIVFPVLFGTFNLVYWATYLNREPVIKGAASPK
T1 sequence (P18507 whole entry): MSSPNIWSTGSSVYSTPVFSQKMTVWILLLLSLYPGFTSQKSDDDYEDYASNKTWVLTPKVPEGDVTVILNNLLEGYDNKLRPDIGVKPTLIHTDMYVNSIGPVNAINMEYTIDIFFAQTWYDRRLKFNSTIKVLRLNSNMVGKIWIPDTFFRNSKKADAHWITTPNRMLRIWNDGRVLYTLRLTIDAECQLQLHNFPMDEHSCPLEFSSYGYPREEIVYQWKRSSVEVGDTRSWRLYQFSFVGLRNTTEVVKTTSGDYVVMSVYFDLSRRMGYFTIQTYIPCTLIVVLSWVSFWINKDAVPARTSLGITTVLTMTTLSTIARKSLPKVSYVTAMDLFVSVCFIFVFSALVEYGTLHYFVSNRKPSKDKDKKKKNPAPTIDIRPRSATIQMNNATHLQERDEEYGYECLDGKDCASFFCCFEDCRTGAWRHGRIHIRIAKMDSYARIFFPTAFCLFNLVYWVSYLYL
T1 sequence (P28472 whole entry): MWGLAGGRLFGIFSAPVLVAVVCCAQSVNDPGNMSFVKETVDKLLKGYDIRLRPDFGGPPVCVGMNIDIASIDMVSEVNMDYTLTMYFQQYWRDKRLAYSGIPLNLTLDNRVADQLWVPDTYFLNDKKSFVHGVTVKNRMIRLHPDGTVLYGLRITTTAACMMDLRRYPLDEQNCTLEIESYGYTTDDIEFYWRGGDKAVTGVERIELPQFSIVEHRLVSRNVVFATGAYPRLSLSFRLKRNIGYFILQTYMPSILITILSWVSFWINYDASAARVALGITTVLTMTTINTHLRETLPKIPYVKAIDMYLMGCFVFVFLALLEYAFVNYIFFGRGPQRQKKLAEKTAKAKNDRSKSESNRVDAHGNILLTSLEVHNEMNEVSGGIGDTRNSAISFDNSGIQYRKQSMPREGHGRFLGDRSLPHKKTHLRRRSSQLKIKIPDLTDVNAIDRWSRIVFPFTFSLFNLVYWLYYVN
The experiment is described as follows: Displacement of [3H]flunitrazepam from human recombinant GABAA alpha-5-beta-3-gamma-2 receptor expressed in HEK cells by liquid scintillation counting.

The target of experiment [4] is T2, Gamma-aminobutyric acid receptor subunit alpha-3/beta-3/gamma-2 (Homo sapiens, UniProt P34903+P18507+P28472).
T2 sequence (P34903 whole entry): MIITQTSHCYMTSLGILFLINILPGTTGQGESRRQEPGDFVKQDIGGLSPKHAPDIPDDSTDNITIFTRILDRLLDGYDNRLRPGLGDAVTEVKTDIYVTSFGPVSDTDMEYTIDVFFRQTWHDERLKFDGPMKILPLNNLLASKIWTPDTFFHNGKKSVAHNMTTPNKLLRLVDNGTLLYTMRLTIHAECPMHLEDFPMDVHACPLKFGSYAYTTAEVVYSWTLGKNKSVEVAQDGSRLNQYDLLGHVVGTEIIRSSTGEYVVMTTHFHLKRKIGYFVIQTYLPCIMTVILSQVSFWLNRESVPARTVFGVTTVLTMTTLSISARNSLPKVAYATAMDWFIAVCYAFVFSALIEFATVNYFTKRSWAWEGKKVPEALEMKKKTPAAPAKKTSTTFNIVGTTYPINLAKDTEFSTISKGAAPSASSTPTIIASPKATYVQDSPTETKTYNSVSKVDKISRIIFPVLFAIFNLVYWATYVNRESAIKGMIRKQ
T2 sequence (P18507 whole entry): T1 sequence (P18507 whole entry)
T2 sequence (P28472 whole entry): T1 sequence (P28472 whole entry)
The experiment is described as follows: Displacement of [3H]flunitrazepam from human recombinant GABAA alpha-3-beta-3-gamma-2 receptor expressed in HEK cells by liquid scintillation counting.

In experiment [5] the target is T3, GABA-A receptor; alpha-2/beta-3/gamma-2 (Homo sapiens, UniProt P47869+P18507+P28472).
T3 sequence (P47869 whole entry): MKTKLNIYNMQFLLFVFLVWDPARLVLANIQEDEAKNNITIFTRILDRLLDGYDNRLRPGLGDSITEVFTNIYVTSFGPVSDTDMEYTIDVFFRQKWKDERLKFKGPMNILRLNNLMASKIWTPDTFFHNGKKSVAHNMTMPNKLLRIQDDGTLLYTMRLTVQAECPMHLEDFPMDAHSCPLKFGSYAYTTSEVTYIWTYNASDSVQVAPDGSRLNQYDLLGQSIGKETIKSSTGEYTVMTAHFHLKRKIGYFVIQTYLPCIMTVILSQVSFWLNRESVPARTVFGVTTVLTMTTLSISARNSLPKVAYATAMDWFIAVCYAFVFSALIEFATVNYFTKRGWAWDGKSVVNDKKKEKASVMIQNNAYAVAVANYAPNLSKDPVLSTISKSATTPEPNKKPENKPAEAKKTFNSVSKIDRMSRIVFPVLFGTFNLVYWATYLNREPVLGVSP
T3 sequence (P18507 whole entry): T1 sequence (P18507 whole entry)
T3 sequence (P28472 whole entry): T1 sequence (P28472 whole entry)
Briefly: Displacement of [3H]flunitrazepam from human recombinant GABAA alpha-2-beta-3-gamma-2 receptor expressed in HEK cells by liquid scintillation counting.

GABA A receptor alpha-4/beta-3/gamma-2, sequence (P48169 whole entry, one chain of several): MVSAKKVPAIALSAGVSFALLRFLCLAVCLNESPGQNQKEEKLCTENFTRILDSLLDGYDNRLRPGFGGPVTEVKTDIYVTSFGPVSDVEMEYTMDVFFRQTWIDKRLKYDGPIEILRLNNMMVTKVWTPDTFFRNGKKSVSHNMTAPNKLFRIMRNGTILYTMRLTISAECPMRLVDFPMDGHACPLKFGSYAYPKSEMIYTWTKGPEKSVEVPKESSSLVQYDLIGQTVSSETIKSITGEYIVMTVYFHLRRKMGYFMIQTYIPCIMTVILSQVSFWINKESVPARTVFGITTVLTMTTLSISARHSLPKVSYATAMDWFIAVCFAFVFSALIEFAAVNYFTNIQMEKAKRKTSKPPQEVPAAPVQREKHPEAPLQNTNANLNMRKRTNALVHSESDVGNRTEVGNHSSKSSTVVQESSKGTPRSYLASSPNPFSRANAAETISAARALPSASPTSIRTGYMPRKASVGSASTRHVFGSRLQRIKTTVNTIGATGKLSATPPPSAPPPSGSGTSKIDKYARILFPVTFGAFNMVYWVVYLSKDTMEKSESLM

In general, Ki refers to the equilibrium dissociation constant of an inhibitor or competing ligand from its target. Take `CC(C)(C)OC(=O)c1cc2c(cn1)[nH]c1ccc(C#C[Si](C)(C)C)cc12` [6-Trimethylsilanylethynyl-9H-beta-carboline-3-carboxylic acid t-butyl ester]: in experiment [1], the Ki was determined as 1000 nM. For `CC(C)(C)OC(=O)c1cc2c(cn1)[nH]c1ccc(F)cc12` [tert-butyl 6-fluoro-9H-pyrido[3,4-b]indole-3-carboxylate], the Ki in experiment [1] and in experiment [2] was 1000 nM each time.

On to `C#Cc1ccc2[nH]c3cnc(C(=O)OCC(F)(F)F)cc3c2c1` [2,2,2-trifluoroethyl 6-ethynyl-9H-pyrido[3,4-b]indole-3-carboxylate], for which the Ki in experiment [1] and in experiment [2] was 2000 nM in each case.

As for `CCOC(=O)c1cc2c(cn1)[nH]c1ccc(I)cc12` [ethyl 6-iodo-9H-pyrido[3,4-b]indole-3-carboxylate], the inhibition constant Ki in experiment [1] and in experiment [2] was 1000 nM in each case.

`CC(C)(C)OC(=O)c1cc2c(cn1)[nH]c1ccc(C(C)(C)C)cc12` [tert-butyl 6-tert-butyl-9H-pyrido[3,4-b]indole-3-carboxylate]: the Ki in experiment [1] and in experiment [2] was 1000 nM each time. As to `CC(C)(C)OC(=O)c1cc2c(cn1)[nH]c1ccccc12`, the Ki in experiment [2] worked out at 1000 nM. With `CC(C)(C)OC(=O)c1cc2c(cn1)[nH]c1ccc(-c3cccs3)cc12` [tert-butyl 6-(thiophen-2-yl)-9H-pyrido[3,4-b]indole-3-carboxylate], the Ki in experiment [1] is 5000 nM. As for `O=C(OC(C(F)(F)F)C(F)(F)F)c1cc2c(cn1)[nH]c1ccc(I)cc12` [1,1,1,3,3,3-hexafluoropropan-2-yl 6-iodo-9H-pyrido[3,4-b]indole-3-carboxylate], the Ki in experiment [1] and in experiment [2] was 3000 nM each time. Regarding `CC(C)(C)OC(=O)c1cc2c(cn1)[nH]c1ccc(C#CC#Cc3ccc4[nH]c5cnc(C(=O)OC(C)(C)C)cc5c4c3)cc12` [1,4-Bis(9H-beta-carboline-3-carboxylic acid tert-butyl ester)buta-1,3-diyne], the Ki in experiment [1], in experiment [3] and in experiment [2] was 5000 nM each time.

For the molecule `CC(C)COc1cc2c3ccccc3nc-2c[nH]1`, the Ki in experiment [1] stood at 10000 nM. Take `CCOc1cc2c(cn1)[nH]c1ccccc12` [3-ethoxy-9H-pyrido[3,4-b]indole]: the Ki in experiment [1] is 1000 nM. For `CCOC(=O)c1cc2c(cn1)[nH]c1ccc(C#C[Si](C)(C)C)cc12` [ethyl 6-((trimethylsilyl)ethynyl)-9H-pyrido[3,4-b]indole-3-carboxylate], the Ki in experiment [1] and in experiment [2] was 2000 nM throughout. As for `O=C(OCC(F)(F)F)c1cc2c(cn1)[nH]c1ccc(I)cc12` [2,2,2-trifluoroethyl 6-iodo-9H-pyrido[3,4-b]indole-3-carboxylate], the Ki in experiment [1] turned out to be 3000 nM; in experiment [2], 2000 nM. In the case of `CC(OC(=O)c1cc2c(cn1)[nH]c1ccccc12)c1ccccc1` (stereo not given) [1-phenylethyl 9H-pyrido[3,4-b]indole-3-carboxylate], the Ki in experiment [1] amounted to 3000 nM; in experiment [4], 1000 nM; in experiment [3] it was 1000 nM; in experiment [2] it was 1000 nM; in experiment [5] it was 1000 nM.

For the molecule `CC(C)(C)OC(=O)c1cc2c(cn1)[nH]c1ccc(-c3ccco3)cc12` [tert-butyl 6-(furan-2-yl)-9H-pyrido[3,4-b]indole-3-carboxylate], the Ki in experiment [1] is 5000 nM. On to `O=C(OC(C(F)(F)F)C(F)(F)F)c1cc2c(cn1)[nH]c1ccccc12` [1,1,1,3,3,3-hexafluoropropan-2-yl 9H-pyrido[3,4-b]indole-3-carboxylate], for which the Ki in experiment [1] was determined as 2000 nM; in experiment [2], 1000 nM.

In the case of `CCCOc1cc2c(cn1)[nH]c1ccccc12` [3-propoxy-9H-pyrido[3,4-b]indole], the Ki in experiment [2] was determined as 1000 nM. Take `O=C(OCC(F)(F)F)c1cc2c(cn1)[nH]c1ccc(-c3ccco3)cc12` [2,2,2-trifluoroethyl 6-(furan-2-yl)-9H-pyrido[3,4-b]indole-3-carboxylate]: the Ki in experiment [1] amounted to 2000 nM; in experiment [2], 3000 nM. Take `c1ccc(COc2cc3c4ccccc4nc-3c[nH]2)cc1`: the Ki in experiment [1] was 10000 nM; in experiment [4], 3000 nM; in experiment [3], 10000 nM; in experiment [5], 3000 nM. For `O=C(OCC(F)(F)F)c1cc2c(cn1)[nH]c1ccc(-c3cccs3)cc12` [2,2,2-trifluoroethyl 6-(thiophen-2-yl)-9H-pyrido[3,4-b]indole-3-carboxylate], the Ki in experiment [1] and in experiment [2] was 2000 nM each time. `O=C(OCC(Cl)(Cl)Cl)c1cc2c(cn1)[nH]c1ccccc12` [2,2,2-trichloroethyl 9H-pyrido[3,4-b]indole-3-carboxylate]: the values for the Ki in experiment [1] and in experiment [2] were 2000 nM and 1000 nM, respectively. `C#Cc1ccc2c(c1)c1cc(C(=O)OC(C)(C)C)ncc1n2C(=O)OC(C)(C)C` [di-tert-butyl 6-ethynyl-9H-pyrido[3,4-b]indole-3,9-dicarboxylate]: the Ki in experiment [1] and in experiment [3] was 5000 nM in each case.

Regarding `CC/C=C/C=C/Oc1cc2c(cn1)[nH]c1ccccc12` [3-(hexa-1,3-dienyloxy)-9H-pyrido[3,4-b]indole], the Ki in experiment [1] and in experiment [3] was 10000 nM in each case. In the case of `CC(C)(C)OC(=O)c1cc2c(cn1)[nH]c1ccc(-c3ccccc3)cc12` [tert-butyl 6-phenyl-9H-pyrido[3,4-b]indole-3-carboxylate], the Ki in experiment [1] came to 5000 nM. Regarding `O=C(OCC(F)(F)F)c1cc2c(cn1)[nH]c1ccc(-c3ccccc3)cc12` [2,2,2-trifluoroethyl 6-phenyl-9H-pyrido[3,4-b]indole-3-carboxylate], the Ki in experiment [1] and in experiment [2] was 2000 nM each time. For the molecule `O=C(Oc1cc(F)c(F)cc1F)c1cc2c(cn1)[nH]c1ccccc12` [2,4,5-trifluorophenyl 9H-pyrido[3,4-b]indole-3-carboxylate], the Ki in experiment [1] and in experiment [2] was 3000 nM in each case.
